From ChEMBL document CHEMBL1142485, “Axial chirality and affinity at the GABA(A) receptor of pyrimido[1,2-a][1,4]benzodiazepines and related compounds” (Bioorg Med Chem, 2008)
Where “and” joins values, the source holds several entries; their conditions need not be identical. Equal entries are not always repeated.

Key:
[1] = Displacement of [3H]flunitrazepam from GABAA benzodiazepine receptor in rat brain membrane; assay type: cell membranes
[2] = species: Rattus norvegicus; assay: Displacement of [3H]flunitrazepam from GABAA benzodiazepine receptor in rat brain membrane at 10 uM; assay type: cell membranes

## Cc1cc(=O)nc2n1-c1ccc(Cl)cc1C(c1ccccc1Cl)=NC2
[1]
  IC50: 8.77 nM and 1.5 nM and 4.35 nM

## Cc1cc(=O)n2c(n1)CC/N=C(/c1ccccc1)c1cc(Cl)ccc1-2
[2]
  Activity: -18%

## CN1C(=O)CN=C(c2ccccc2)c2cc(Cl)ccc21 [DIAZEPAM]
[1]
  IC50: 21.2 nM

## Cc1cc(=O)nc2n1-c1ccc(Cl)cc1/C(c1ccccc1)=N\CC2
[2]
  Activity: 24%

## Clc1ccc2c(c1)C(c1ccccc1)=NCc1nncn1-2 [ESTAZOLAM]
[1]
  IC50: 46.6 nM

## Cc1nnc2n1-c1ccc(Cl)cc1C(c1ccccc1Cl)=NC2 [TRIAZOLAM]
[1]
  IC50: 1.54 nM

## Cc1cc(=O)n2c(n1)CN=C(c1ccccc1)c1cc(Cl)ccc1-2
[2]
  Activity: 17%
[1]
  IC50: 93.6 nM and 394 nM
